Test results from ChEMBL document CHEMBL1201862, “PubChem BioAssay data set” (2004).
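In this assay, cells in 96-well plates receive the compound at five concentrations for 48 hours. Endpoints are linearly interpolated between the surrounding concentrations. At the GI50, growth is halved.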 Active and inactive are the calls of the source. Rule as the data show it: active = GI50 up to about 1.1 µM and inactive = higher. Where a SMILES comes first, the peptide text is derived from it. [ ]: non-standard residue; d: D form. 2Nal = N[CH](Cc1ccc2ccccc2c1)C(=O)O

Experiments:
Assay in all cases: inhibition of tumour cell growth, NCI panel, 48 h
SNB-75 = system: SNB-75
UACC-62 = system: UACC-62
M14 = system: M14
KM-20L2 = system: KM-20L2
OVCAR-8 = system: OVCAR-8
786-0 = system: 786-0
SNB-19 = system: SNB-19
OVCAR-3 = system: OVCAR-3
SF-268 = system: SF-268
HL-60 = system: HL-60
NCI-H23 = system: NCI-H23
LOX IMVI = system: LOX IMVI
KM12 = system: KM12
OVCAR-5 = system: OVCAR-5
T47D = system: T47D
UACC-257 = system: UACC-257
SF-539 = system: SF-539
TK-10 = system: TK-10
BT-549 = system: BT-549
MDA-N = system: MDA-N

Row | SMILES | GI50 (SNB-75) | GI50 (UACC-62) | GI50 (M14) | GI50 (KM-20L2) | GI50 (OVCAR-8) | GI50 (786-0) | GI50 (SNB-19) | GI50 (OVCAR-3) | GI50 (SF-268) | GI50 (HL-60) | GI50 (NCI-H23) | GI50 (LOX IMVI) | GI50 (KM12) | GI50 (OVCAR-5) | GI50 (T47D) | GI50 (UACC-257) | GI50 (SF-539) | GI50 (TK-10) | GI50 (BT-549) | GI50 (MDA-N)
1 | CC(NC(=O)C(N)Cc1ccccc1)C(=O)NC(Cc1ccc(O)cc1)C(=O)NC(Cc1c[nH]c2ccccc12)C(=O)NC(CCCCN)C(=O)NC(C(=O)NC(C)C(=O)NC(Cc1ccc2ccccc2c1)C(N)=O)C(C)C (centres undefined) (H-FAYWKVA[2Nal]-NH2; configuration not given here) | 28.1 µM (inactive) | > 12.5 µM (inactive) | > 12.5 µM (inactive) | 27.1 µM (inactive) | > 12.5 µM (inactive) | > 12.5 µM (inactive) | 24.6 µM (inactive) | > 12.5 µM (inactive) | > 12.5 µM (inactive) | > 12.5 µM (inactive) | > 12.5 µM (inactive) | > 12.5 µM (inactive) | > 12.5 µM (inactive) | > 12.5 µM (inactive) | > 12.5 µM (inactive) | > 12.5 µM (inactive) | > 12.5 µM (inactive) | – | – | –
2 | COc1ccc2nccc(NCCCN3CCN(CCCNc4ccnc5ccc(OC)cc45)CC3)c2c1 | 0.543 µM (active) | 0.918 µM (active) | 1.08 µM (active) | 0.703 µM (active) | 0.612 µM (active) | 0.582 µM (active) | 0.927 µM (active) | 1.22 µM (inactive) | 0.432 µM (active) | 0.0953 µM (active) | 0.51 µM (active) | 0.272 µM (active) | 0.357 µM (active) | 0.826 µM (active) | 0.887 µM (active) | 1.04 µM (active) | 0.173 µM (active) | 5.31 µM (inactive) | 4.27 µM (inactive) | 0.0881 µM (active)
3 | C/C=C(/CCCCNCCCC)[Si](C)(C)C | 13.5 µM (inactive) | 17.6 µM (inactive) | 14.4 µM (inactive) | 7.52 µM (inactive) | 15.7 µM (inactive) | 12.5 µM (inactive) | 17.7 µM (inactive) | 14.5 µM (inactive) | 12.3 µM (inactive) | 6.64 µM (inactive) | 16.1 µM (inactive) | 14.2 µM (inactive) | 14.5 µM (inactive) | 14.4 µM (inactive) | – | 15.2 µM (inactive) | 14.9 µM (inactive) | 15 µM (inactive) | – | –
